The values below are quoted from earlier work in US20230193011A1, “COLOR CHANGING POLYMERIC RESIN COMPOSITIONS” (ECOLAB USA INC., priority 2021, published 2023).

Read-outs that look alike come from different tables or passages of the source.

For this series the following is noted: for High pH color: color above the transition range; for Low pH color: color below the transition range; for pH start: pH at which the color change begins; for pH end: pH at which the color change ends.
Where [1] appears, read: listed as Malachite green - step 2.

`Cc1c(C2(c3cc(C(C)C)c(O)c(Br)c3C)OS(=O)(=O)c3ccccc32)cc(C(C)C)c(O)c1Br` [Bromothymol blue]: the “High pH color” value was “blue”, the “Low pH color” value is on record as “yellow”, the pH start was 6.0 and the pH end was 7.6.

With `O=C(O)c1cc(N=Nc2ccc([N+](=O)[O-])cc2)ccc1O` [Alizarin yellow R], the pKa was 11.2, the “High pH color” value is recorded as “red”, the “Low pH color” value is given as “yellow” and the pH start is on record as 10.1. The pH end is listed as 12.0.

Turning to `CN(C)c1ccc(N=Nc2ccccc2)cc1` [Methyl yellow], the pKa is recorded as 3.3, the “High pH color” value is “yellow”, the “Low pH color” value is “red” and the pH start is on record as 2.9. Besides, the pH end is given as 4.0.

With Azolitmin [Azolitmin (litmus)], the “High pH color” value was “blue”, the “Low pH color” value was “red”, the pH start was 4.5 and the pH end is 8.3.

Take `CN(C)c1ccc(C(=C2C=CC(=[N+](C)C)C=C2)c2ccccc2)cc1` [Malachite green - step 1, Malachite green]: the “High pH color” value is listed as “green”, the “Low pH color” value is “yellow”, the pH start is recorded as 0.2 and the pH end is listed as 1.8. Also, under setting [1], the “High pH color” value was “colorless”, the “Low pH color” value is reported as “green”, the pH start is 11.5 and the pH end is given as 13.2.

Take `Cc1cc(O)c(C(C)C)cc1C1(c2cc(C(C)C)c(O)cc2C)OS(=O)(=O)c2ccccc21` [Thymol blue - step 1, Thymol blue]: the pKa is on record as 1.7, the “High pH color” value is reported as “yellow”, the “Low pH color” value was “red” and the pH start is 1.2. In addition, the pH end is listed as 2.8. Further, under “listed as Thymol blue - step 2”, the “High pH color” value is “blue”, the “Low pH color” value was “yellow”, the pKa was 9.2 and the pH start is 8.0. Besides, the pH end (listed as Thymol blue - step 2) is listed as 9.6.

Take `O=C1/C(=C2\Nc3ccc(S(=O)(=O)[O-])cc3C2=O)Nc2ccc(S(=O)(=O)[O-])cc21.[Na+].[Na+]` [Indigo carmine]: the “High pH color” value was “yellow”, the “Low pH color” value was “blue”, the pH start was 11.4 and the pH end is on record as 13.0.

In the case of `Cc1cc(C2(c3cc(C)c(O)c(Br)c3)OS(=O)(=O)c3ccccc32)cc(Br)c1O` [Bromocresol purple], the pKa was 6.4, the “High pH color” value is on record as “purple”, the “Low pH color” value is given as “yellow” and the pH start was 5.2. The pH end is listed as 6.8.

With `O=C1OC(c2ccc(O)c3ccccc23)(c2ccc(O)c3ccccc23)c2ccccc21` [Naphtholphthalein], the “High pH color” value was “greenish-”, the “Low pH color” value was “pale red”, the pH start was 7.3 and the pH end was 8.7.

As for `O=S1(=O)OC(c2cc(Br)c(O)c(Br)c2)(c2cc(Br)c(O)c(Br)c2)c2ccccc21` [Bromophenol blue], the “High pH color” value is “blue”, the “Low pH color” value is “yellow”, the pH start is recorded as 3.0 and the pH end was 4.6.

Consider `Cc1cc(O)c(C(C)C)cc1C1(c2cc(C(C)C)c(O)cc2C)OC(=O)c2ccccc21` [Thymolphthalein], for which the pKa was 9.2, the “High pH color” value was “blue”, the “Low pH color” value is “colorless” and the pH start is given as 9.0. For the same compound, the pH end was 10.5.

Regarding `Cc1cc2nc3ccc(N(C)C)cc3nc2cc1N.Cl` [Neutral red], the “High pH color” value is given as “yellow”, the “Low pH color” value is “red”, the pH start was 6.8 and the pH end was 8.0.

Turning to `CN(C)c1ccc(N=Nc2ccc(S(=O)(=O)[O-])cc2)cc1.[Na+]` [Methyl orange], the pKa was 3.5, the “High pH color” value is “yellow”, the “Low pH color” value is reported as “red” and the pH start is 3.1. The pH end was 4.4.

Turning to `CN(C)c1ccc(/N=N/c2ccccc2C(=O)O)cc1` [Methyl red], the pKa is 5.1, the “High pH color” value is reported as “yellow”, the “Low pH color” value is “red” and the pH start is 4.4. The pH end is 6.2.

Regarding Methyl purple, the “High pH color” value was “green”, the “Low pH color” value is “purple”, the pH start is 4.8 and the pH end was 5.4.

With `Cc1c(C2(c3cc(Br)c(O)c(Br)c3C)OS(=O)(=O)c3ccccc32)cc(Br)c(O)c1Br` [Bromocresol green], the pKa is given as 4.7, the “High pH color” value is recorded as “blue”, the “Low pH color” value was “yellow” and the pH start is 3.8. Further, the pH end was 5.4.

`O=C1OC(c2ccc(O)cc2)(c2ccc(O)cc2)c2ccccc21` [Phenolphthalein]: the pKa was 9.5, the “High pH color” value was “red-pink”, the “Low pH color” value is recorded as “colorless” and the pH start was 8.3. For the same compound, the pH end is recorded as 10.0.

For the compound `Nc1c(/N=N/c2ccc(-c3ccc(/N=N/c4cc(S(=O)(=O)O)c5ccccc5c4N)cc3)cc2)cc(S(=O)(=O)O)c2ccccc12` [Congo red], the “High pH color” value is given as “red”, the “Low pH color” value is given as “blue-violet”, the pH start is recorded as 3.0 and the pH end is recorded as 5.0.

Take `Cc1cc(C2(c3ccc(O)c(C)c3)OS(=O)(=O)c3ccccc32)ccc1O` [Cresol red - step 1, Cresol red]: the “High pH color” value is “yellow”, the “Low pH color” value is given as “red”, the pH start is listed as 0.2 and the pH end is 1.8. Where the note is “listed as Cresol red - step 2”, the “High pH color” value is listed as “reddish-”, the “Low pH color” value is given as “yellow”, the pH start is recorded as 7.2 and the pH end was 8.8.

Take `Cc1cc(C2(c3ccc(O)c(C)c3)OC(=O)c3ccccc32)ccc1O` [Cresolphthalein]: the “High pH color” value is reported as “purple”, the “Low pH color” value is given as “colorless”, the pH start is on record as 8.2 and the pH end is recorded as 9.8.

For orientation: pKa means the negative logarithm of the acid dissociation constant.
